Assay results from patent publication US20250000864A1, “GONADOTROPIN-RELEASING HORMONE ANTAGONIST, AND PREPARATION METHOD THEREFOR AND USE THEREOF” (SHANDONG LUYE PHARMACEUTICAL CO., LTD., priority 2021, published 2025).
Read-outs that look alike come from different tables or passages of the source.

Columns and labels:
[1] = Pharmacokinetics in SD rats (i.v. and i.g.); type: in vivo; settings: for bioavailability: read-out: F (absolute bioavailability)
Method: Instrument: water purification equipment, Millipore; electronic balance, METTLER TOLEDO; high-speed benchtop centrifuge, Thermo; water bath thermostatic oscillator, Shanghai Yiheng Technical Co., Ltd.; vortex oscillator, Thermo; LC-MS/MS, AB SCIEX.
Method: all compounds were formulated in DMSO and 20% solutol. In the pharmacokinetic experiment, the administration dose for the intravenous group (i.v) was 1 mg/kg, and the administration dose for the intragastric group (i.g) was 12 mg/kg, each group containing 3 rats. Blood was collected from the orbit of the rats before (0 h) the administration and at set time points after administration. In the tissue distribution experiment, the rats were subjected to intragastric administration at a dose of 12 mg/kg. […] The […] in a heparinized EP tube and centrifuged at 13,500 rpm for 10 min to isolate the plasma. The pituitary was homogenized with water in a certain proportion. The plasma and pituitary homogenates were pre-treated and then analyzed by LC-MS/MS to determine the concentration of the test substances in the plasma and the pituitary. The plasma drug concentration data were processed in a non-compartmental model using WinNonlin™ Version 6.3 (Pharsight, Mountain View, CA) pharmacokinetic software.

[2] = Metabolic stability in rat liver microsomes; type: in vitro ADME, SD rat; settings: for Residual content at 60 min / CLint scaled / half-life / microsomal CLint / CLint(liver): Rat liver microsomes; for Residual content at 60 min: NADPH, 37° C.; for CLint scaled / half-life / microsomal CLint: Sprague-Dawley (SD); for microsomal CLint: read-out: CLint(mic)
Method: (§1) Liver Microsome: Rat Liver Microsome and Human Liver Microsome Reagent: NADPH, Roche Diagnostics Gmbh; ACN, Merck Chemical; Tolbutamide, Sigma. Instrument: water purification equipment, Millipore; electronic balance, METTLER TOLEDO; high-speed benchtop centrifuge, Thermo; water bath thermostatic oscillator, Shanghai Yiheng Technical Co., Ltd.; vortex oscillator, Thermo; LC-MS/MS, AB SCIEX. Method: the metabolic stability of test substances was evaluated by using SD rat and human liver microsomes. The test substances were incubated with liver microsomes from different species by using NADPH under a water bath at 37° C. A cold acetonitrile solution containing a Tolbutamide internal standard substance was added at a specified time point to terminate the reaction. The samples were pre-treated and then subjected to semi-quantitative analysis by LC-MS/MS. The retention times of the analytes and Tolbutamide internal standard, the acquisition of chromatograms, and the integration of chromatograms were processed using software Analyst (A Sciex, Framingham, Massachusetts, USA). The in vitro elimination rate constant Ke of the samples was obtained by converting the ratio of the peak area of the samples to the peak area of the internal standard into the residual percentage, and the in vitro clearance rate and the half-life of the test samples were calculated.

[3] = Metabolic stability in human liver microsomes; type: in vitro ADME; settings: for Residual content at 60 min: NADPH, 37° C.; for microsomal CLint: read-out: CLint(mic)
Method: as §1

[4] = Caco-2 two-way permeability and efflux; type: in vitro ADME; settings: human; for Papp A→B at 120 min / Papp B→A at 120 min: Caco-2, 120 min incubation
Method: Instrument: water purification equipment, ELGA LabWate; biosafety cabinet, NUAIRE; thermostatic CO2 incubator, Thermo; microplate reader, PerkinElmer; LC-MS/MS, AB SCIEX.
Method: A Caco-2 monolayer cell model was used to determine the two-way permeability of the test substances and evaluate whether the test substances were transported by the efflux of a transporter. In the experiment, Caco-2 cells were seeded into a 96-well cell culture plate and cultured for 28 consecutive days for transport assay. The test substances were each administered on two sides. After being incubated for 120 min, the samples at the apical end A, at the basal end B, and with cell lysis were collected and quantitatively determined for the content of the test substances by using a liquid chromatography-tandem mass spectrometry (LC/MS/MS) method. The apparent permeability coefficient (Papp) in the direction from the apical end to the basal end (A-B) and in the direction from the basal end to the apical end (B-A) and the efflux ratio were calculated from the concentrations of the test substances.

human GnRHR = human GnRHR (Homo sapiens (Human), UniProt P30968); experiment: In vitro antagonistic activity screening (FLIPR calcium fluorescence, Leuprolide acetate stimulation); type: cell-based; settings: HEK293 cells stably expressing human GnRHR
Chain of human GnRHR (P30968 whole entry): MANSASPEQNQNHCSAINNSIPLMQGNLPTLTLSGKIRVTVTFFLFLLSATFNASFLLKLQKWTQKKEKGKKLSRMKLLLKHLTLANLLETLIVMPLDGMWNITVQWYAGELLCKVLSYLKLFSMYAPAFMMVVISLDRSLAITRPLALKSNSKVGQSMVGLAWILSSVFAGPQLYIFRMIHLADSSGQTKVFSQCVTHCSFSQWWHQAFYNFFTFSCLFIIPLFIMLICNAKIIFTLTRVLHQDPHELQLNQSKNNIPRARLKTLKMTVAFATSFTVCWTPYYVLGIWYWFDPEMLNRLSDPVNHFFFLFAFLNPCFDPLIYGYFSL
Method: Cell: HEK293 cells stably expressing human GnRHR (WuXi AppTec (Shanghai) Co., Ltd.) Equipment: 384-well plate, Greiner; Vi-cell XR Cell Viability Analyzer, Beckman Coulter; incubator, Thermo.
Method: HEK293 cells stably expressing human GnRHR were seeded into a 384-well plate at a density of 20,000/well. Fluo-4 Direct™ No-wash Loading Buffer (Invitrogen) was added to each well the next day, and then the plate was put back into an incubator, incubated at 37° C. for 50 min, and then incubated at room temperature for 10 min. Test compounds were formulated in DMSO. […] Fluorescence values were determined using a FLIPR Tetra high throughput real-time fluorescence detection and assay system. Then 10 μL of Leuprolide acetate was added, and fluorescence values were determined. IC50 and IC90 of the compounds were calculated using Prism.

[5] = target: human hERG potassium channel (Homo sapiens (Human), UniProt Q12809); experiment: hERG test (QPatch automated patch clamp, CHO cells); type: cell-based
Chain of human hERG potassium channel (Q12809 whole entry): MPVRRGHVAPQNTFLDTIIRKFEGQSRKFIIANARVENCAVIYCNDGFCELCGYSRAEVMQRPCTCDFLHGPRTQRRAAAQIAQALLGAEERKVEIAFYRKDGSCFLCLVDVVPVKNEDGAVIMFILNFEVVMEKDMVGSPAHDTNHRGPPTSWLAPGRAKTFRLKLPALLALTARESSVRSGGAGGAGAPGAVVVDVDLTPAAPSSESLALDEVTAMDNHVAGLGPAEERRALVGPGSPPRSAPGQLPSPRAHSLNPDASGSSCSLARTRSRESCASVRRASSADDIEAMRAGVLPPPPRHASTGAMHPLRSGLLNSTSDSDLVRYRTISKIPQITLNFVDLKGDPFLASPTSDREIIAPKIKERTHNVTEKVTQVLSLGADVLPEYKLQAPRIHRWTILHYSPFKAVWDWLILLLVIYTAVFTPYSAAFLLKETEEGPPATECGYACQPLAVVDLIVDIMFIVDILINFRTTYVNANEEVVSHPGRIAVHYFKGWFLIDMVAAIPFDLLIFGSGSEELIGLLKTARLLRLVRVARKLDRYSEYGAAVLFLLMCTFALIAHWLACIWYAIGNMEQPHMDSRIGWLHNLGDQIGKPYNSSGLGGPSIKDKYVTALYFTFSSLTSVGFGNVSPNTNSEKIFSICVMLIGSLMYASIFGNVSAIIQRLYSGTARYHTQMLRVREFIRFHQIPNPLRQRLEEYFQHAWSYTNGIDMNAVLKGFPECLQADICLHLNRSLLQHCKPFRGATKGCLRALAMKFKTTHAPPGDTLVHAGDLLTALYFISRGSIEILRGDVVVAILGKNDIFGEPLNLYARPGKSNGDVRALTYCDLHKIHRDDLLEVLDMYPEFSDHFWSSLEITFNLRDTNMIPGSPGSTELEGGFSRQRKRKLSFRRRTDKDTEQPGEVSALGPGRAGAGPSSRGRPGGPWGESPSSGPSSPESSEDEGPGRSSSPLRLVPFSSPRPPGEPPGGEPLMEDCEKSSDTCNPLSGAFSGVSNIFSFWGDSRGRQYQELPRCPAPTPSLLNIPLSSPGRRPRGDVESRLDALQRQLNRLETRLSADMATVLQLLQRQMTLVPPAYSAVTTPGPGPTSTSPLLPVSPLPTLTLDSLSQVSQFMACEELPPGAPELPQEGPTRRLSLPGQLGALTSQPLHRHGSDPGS
Method: Cell: CHO cells stably expressing a human hERG potassium channel (WuXi AppTec (Shanghai) Co., Ltd.) Reagent: physiological solution (pH=7.4): 140 mM NaCl, 4 mM KCl, 2 mM CaCl2), 1 mM MgCl2, 5 mM Glucose, 10 mM HEPES, Osmolarity: about 298 mOsm; external solution (pH=7.4): 80 mM NaCl, 4 mM KCl, 2 mM CaCl2), 1 mM MgCl2, 5 mM Glucose, 60 mM NMDG, 10 mM HEPES, Osmolarity: about 289 mOsm; internal solution (pH=7.4): 10 mM NaCl, 10 mM KCl, 110 mM KF, 10 mM HEPES, EGTA: […], Osmolarity: about 280 mOsm.
Equipment: QPatch high-throughput automated patch clamp system, Sophion.
Method: CHO cells stably expressing a human hERG potassium channel were digested with TrypLE and resuspended in a physiological solution for later use. The single-cell high-impedance sealing and whole-cell mode formation processes were automatically completed by Qpatch. The clamping voltage for the cells was −80 mV. Then a voltage of −50 mV was applied for 80 ms to subtract (current) leakage, and a voltage of +20 mV was applied for 4800 ms to open the hERG channel. The voltage was then reduced to −50 mV and maintained for 5000 ms. This process was used for data collection and analysis. Finally, the voltage was returned to the clamping voltage (−80 mV, 1000 ms). This process was repeated every 20,000 ms. 40 μL of solvent control (external solution+DMSO) was added first, and the test was performed for […] to collect baseline data. Then, 40 μL of each of the test compounds was added at various concentrations, and the test was performed for no less than […]. The compounds were each dissolved in DMSO, with test concentrations being 0.30 μM, 1.00 μM, 3.00 μM, 10.00 μM, and 30.00 μM. The IC50 data for the hERG test were obtained by analyzing using DataControl, Excel2013, and Prism.

[6] = male, rat, plasma, intravenous, i.v 1 mg/kg
[7] = male, rat, plasma, oral, i.g 12 mg/kg
[8] = male, Sprague-Dawley (SD), rat, plasma, iv, i.v 1 mg/kg
[9] = male, Sprague-Dawley (SD), rat, plasma, po, i.g 12 mg/kg
[10] = male, Sprague-Dawley (SD), rat, plasma, po, i.g 12 mg/kg vs i.v 1 mg/kg

## CONC(=O)Nc1ccc(-c2sc3c(c2CN(C)CCOC(F)(F)F)c(=O)n(-c2ccc(OC)nn2)c(=O)n3Cc2c(F)cccc2F)cc1 [Compound 1]
[1]; i.g 12 mg/kg
  T1/2: 4.86 ± 3.05 h
  Tmax: 1.13 ± 0.63 h
[1]; i.g 12 mg/kg vs i.v 1 mg/kg
  F (absolute bioavailability): 44.7%
[1]; i.v 1 mg/kg
  T1/2: 2.79 ± 0.87 h
[1]; [6]
  AUC(0-t): 992 ± 226 ng·h/mL
  C0: 2830 ± 454 ng/mL
  MRT last: 0.539 ± 0.041 h
[1]; [7]
  AUC(0-t): 5320 ± 1210 ng·h/mL
  Cmax: 664 ± 123 ng/mL
  MRT last: 6.02 ± 0.93 h

## CONC(=O)Nc1ccc(-c2sc3c(c2CN(C)C)c(=O)n(-c2cccc(OC(F)F)c2F)c(=O)n3Cc2c(F)cccc2F)cc1 [Compound 3]
[2]
  Residual content at 60 min: 34.5%
  CLint scaled: 62.6 mL/min/kg
  half-life: 0.663 h
  microsomal CLint: 34.8 µL/min/mg
[3]
  CLint scaled: 17.5 mL/min/kg
  half-life: 1.19 h
  Residual content at 60 min: 55.5%
  microsomal CLint: 19.4 µL/min/mg
[4]
  Papp A→B at 120 min: 0.126 ×10⁻⁶ cm/s
  Papp B→A at 120 min: 18 ×10⁻⁶ cm/s
[1]; [8]
  AUC(0-t): 271 ± 49 ng·h/mL
  C0: 198 ± 4 ng/mL
  MRT last: 3.83 ± 0.63 h
  half-life: 4.34 ± 1 h
[1]; [9]
  AUC(0-t): 596 ± 231 ng·h/mL
  Cmax: 82.7 ± 10.1 ng/mL
  MRT last: 7.3 ± 1.13 h
  half-life: 4.11 h
[1]; [10]
  bioavailability: 18.3%
[1]; male, Sprague-Dawley (SD), rat, plasma, po, i.g 12 mg/kg, read-out: Tmax
  Tmax: 6 ± 2.83 h

## CONC(=O)Nc1ccc(-c2oc3c(c2CN(C)C)c(=O)n(-c2ccc(OC)nn2)c(=O)n3Cc2c(F)cccc2F)cc1 [Compound 4]
Human GnRHR; read-out: Functional IC50
  IC50: 12 nM
Human GnRHR; read-out: Functional IC90
  IC90: 92.3 nM
[5]; CHO cells stably expressing human hERG potassium channel
  IC50: 4440 nM
[5]; in words, vs Relugolix
  Inhibitory activity on the human hERG potassium channel compared with Relugolix: equal to or less than that of Relugolix
[2]
  Residual content at 60 min: 89.9%
  CLint scaled: < 13.5 mL/min/kg
  half-life: > 3.1 h
  microsomal CLint: < 7.5 µL/min/mg
[2]; SD rat liver microsome
  Clearance in the SD rat liver microsome (in words): low clearance
[3]
  CLint scaled: < 6.75 mL/min/kg
  half-life: > 3.1 h
  Residual content at 60 min: 104%
  microsomal CLint: < 7.5 µL/min/mg
[4]; Caco-2, read-out: Efflux ratio
  efflux ratio at 120 min: 316
[4]
  Papp A→B at 120 min: 0.0933 ×10⁻⁶ cm/s
  Papp B→A at 120 min: 29.4 ×10⁻⁶ cm/s

## CONC(=O)Nc1ccc(-c2sc3c(c2CN(C)C)c(=O)n(-c2ccc(OC)nn2)c(=O)n3Cc2c(F)cccc2C(F)(F)F)cc1 [Compound 5]
[2]
  Residual content at 60 min: 98.7%
  CLint scaled: < 13.5 mL/min/kg
  half-life: > 3.1 h
  microsomal CLint: < 7.5 µL/min/mg
[3]
  CLint scaled: < 6.75 mL/min/kg
  half-life: > 3.1 h
  Residual content at 60 min: 89.0%
  microsomal CLint: < 7.5 µL/min/mg
[4]
  Papp A→B at 120 min: 0.011 ×10⁻⁶ cm/s
  Papp B→A at 120 min: 4.58 ×10⁻⁶ cm/s

## CNc1ccc(-n2c(=O)c3c(CN(C)C)c(-c4ccc(NC(=O)NOC)cc4)sc3n(Cc3c(F)cccc3F)c2=O)nn1 [Compound 6]
[2]
  Residual content at 60 min: 57.1%
  CLint scaled: 34.9 mL/min/kg
  half-life: 1.19 h
  microsomal CLint: 19.4 µL/min/mg
[3]
  CLint scaled: < 6.75 mL/min/kg
  half-life: > 3.1 h
  Residual content at 60 min: 95.9%
  microsomal CLint: < 7.5 µL/min/mg
[4]
  Papp A→B at 120 min: 0.0504 ×10⁻⁶ cm/s
  Papp B→A at 120 min: 0.504 ×10⁻⁶ cm/s

## COc1ccc(-n2c(=O)c3c(CN(C)C)c(-c4ccc(NC(=O)NOCC(F)F)cc4)sc3n(Cc3c(F)cccc3F)c2=O)nn1 [Compound 7]
[2]
  CLint(liver): 45.4 mL/min/kg
  Residual content at 60 min: 47.0%
  half-life: 0.917 h
  microsomal CLint: 25.2 µL/min/mg
[3]
  CLint(liver): 7.38 mL/min/kg
  half-life: 2.82 h
  Residual content at 60 min: 75.5%
  microsomal CLint: 8.2 µL/min/mg
[4]
  Papp A→B at 120 min: 0.0101 ×10⁻⁶ cm/s
  Papp B→A at 120 min: 15.6 ×10⁻⁶ cm/s

## CONC(=O)Nc1ccc(-c2sc3c(c2CN(C)C)c(=O)n(-c2ccc(OC)nn2)c(=O)n3Cc2c(F)cccc2F)cc1 [Relugolix, reference compound]
[2]
  CLint(liver): 29.5 mL/min/kg
  Residual content at 60 min: 58.0%
  half-life: 1.41 h
  microsomal CLint: 16.4 µL/min/mg
[3]
  CLint(liver): 5.22 mL/min/kg
  half-life: 3.98 h
  Residual content at 60 min: 86.4%
  microsomal CLint: 5.8 µL/min/mg
[4]
  Papp A→B at 120 min: 0.00716 ×10⁻⁶ cm/s
  Papp B→A at 120 min: 13.8 ×10⁻⁶ cm/s
[1]; i.g 12 mg/kg
  T1/2: 3.88 ± 0.57 h
[1]; [10]
  bioavailability: 5.74%
